Data on 14 molecules can be found in patent US9012420B2, “Aptamer for chymase, and use thereof” (Ribomic Inc., priority 2009, dated 2015).

By IC50 is commonly meant the midpoint of a concentration-inhibition curve.

Oligonucleotides are written 5' to 3', each unit as a sugar letter and its base; * is a phosphorothioate linkage, no mark a phosphodiester; rarer units and linkages stand in square brackets, end groups in braces. Plain capitals give the bases only. r = 2'-OH (RNA); f = 2'-fluoro

For data set [1], the target named is T1, chymase (recombinant, manufactured by SIGMA) (Homo sapiens, UniProt P23946).
T1 construct: purchased SIGMA; host or cells: yeast
T1 sequence (P23946 22-247): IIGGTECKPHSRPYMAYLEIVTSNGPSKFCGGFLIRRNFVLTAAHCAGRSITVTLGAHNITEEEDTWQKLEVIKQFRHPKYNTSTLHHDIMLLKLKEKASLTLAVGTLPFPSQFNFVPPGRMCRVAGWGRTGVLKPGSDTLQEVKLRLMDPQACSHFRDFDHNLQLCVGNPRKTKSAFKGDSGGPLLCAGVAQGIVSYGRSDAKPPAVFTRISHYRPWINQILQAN
Nature of the data set: Surface plasmon resonance (Biacore T100), chymase immobilized on CM5 chip, nucleic acid injected as analyte. The format is binding. The arrangement: key to Binding activity as determined using Biacore: ++: a sequence that binds to chymase significantly more strongly than the negative control 40N; +: a sequence that binds to chymase equivalently compared with the negative control 40N; key to binding activity using Biacore: ++: significant binding to chymase than SEQ ID NO: 58 which is a negative control; +: similar binding level as SEQ ID NO: 58 which is a negative control. The note with it: for Binding activity as determined using Biacore: Table 4, about 4000 RU chymase immobilized, nucleic acid 0.3 μM, solution C, compared with 40N; for binding activity using Biacore: same manner as Example 4, compared with SEQ ID NO: 58. The method, then:
In another method, chymase is first immobilized onto a sensor chip, the amount immobilized being about 4000 RU. 20 μL of an aptamer solution for analyte, prepared at 0.01 μg/μL, is injected, and the binding of the aptamer to chymase is detected. An RNA containing a random nucleotide sequence of 30 or 40 nucleotides is used as a negative control.
Whether these nucleic acids bind to chymase was determined by the surface plasmon resonance method. Measurements were taken using Biacore T100 (manufactured by GE Healthcare) as described below. About 4000 RU of chymase (recombinant, manufactured by SIGMA) was immobilized on the sensor chip surface of a CM5 chip, using an amine coupling kit. 20 μL of each nucleic acid, prepared at 0.3 μM, as an analyte was injected at a flow rate of 20 μL/min. Solution C was used as a running buffer. The method of evaluation used was the same as Example 1.
All nucleic acids of SEQ ID NO: 58-68 were prepared by chemical synthesis. Whether these nucleic acids are bound to chymase was assessed by surface plasmon resonance method in the same manner as in Example 4. The inhibitory activity on chymase was measured in the same manner as in Example 3.
All nucleic acids of SEQ ID NOs: 73-79, 56(8), 80, 56(10), 81, 56(13)-56(14), 83-87 were prepared by chemical synthesis. Whether these nucleic acids are bound to chymase was assessed by surface plasmon resonance method in the same manner as in Example 4.
All nucleic acids of SEQ ID NO: 88-120, 121, 69, 122, 123, 70-72, 124-131 were prepared by chemical synthesis. Whether these nucleic acids are bound to chymase was assessed by surface plasmon resonance method in the same manner as in Example 4.
For orientation: Surface plasmon resonance follows binding to a sensor surface in real time, without labels.

In data set [2] the target is T2, native chymase (purified from human skin mast cell) (Homo sapiens, UniProt P23946).
T2 construct: the native is chymase purified from human skin mast cell; purchased Calbiochem; host or cells: human skin mast cell
T2 sequence (P23946 22-247): T1 sequence (P23946 22-247)
Nature of the data set: Chymase inhibitory activity using angiotensin I as substrate, native chymase. The format is biochemical. The conditions noted are these: final 50 μM, chymase 0.2-0.5 nM, 37° C. 90 min, one measurement. The method, then:
A second method of evaluation employs a native substrate. A useful native substrate for chymase is angiotensin I. Here, His-Leu, a peptide fragment released upon degradation of angiotensin I, is fluorescently derivatized, and the fluorescence intensity therefrom is quantified.
In the assay, an enzyme reaction is carried out in 50 μL of solution C. First, 0.3-0.75 ng of chymase (recombinant, manufactured by SIGMA; or native, manufactured by Calbiochem) is diluted in solution C to obtain 5 μL chymase solution. Each nucleic acid is prepared in solution C to obtain 25 μL solutions. 5 μL of each chymase dilution and 25 μL of each nucleic acid solution are mixed, and then the mixture is incubated at 37° C. for 5 minutes. […] The angiotensin I solution is added to the mixture of chymase and nucleic acid, and the enzyme reaction is initiated. After the reaction was allowed to proceed at 37° C. for 90 minutes, 25 μL of ice-cooled 30% trichloroacetic acid solution is added to terminate the reaction. The entire mixture is centrifuged at 4° C., 14000 rpm for 10 minutes, and 30 μL of the resulting supernatant is used for the subsequent reaction for fluorescent derivatization.
After 30 μL of the supernatant is added to a 96-well plate (Black, manufactured by Costar), 15 μL of 2% o-phthalaldehyde (manufactured by SIGMA) solution in methanol and 170 μL of 0.3M NaOH solution are mixed in each well, and the plate is allowed to stand at room temperature for 10 minutes. Subsequently, 25 μL of 3M HCl solution is added to terminate the reaction. The plate is set to the microplate reader SpectraMax190 (manufactured by Molecular Devices Corporation), and the fluorescence intensity is determined at an excitation wavelength of 355 nm and a fluorescence wavelength of 460 nm.
For control, samples are treated and analyzed in the same manner in two cases: use of SEQ ID NO: 58 (negative control) and use of chymostatin, a known chymotrypsin-like serine protease inhibitor (positive control). In both cases, fluorescence intensity obtained at 0 minute reaction time serves as a blank determination. Taking the fluorescence intensity detected with the addition of an equal volume of solution C, in place of each nucleic acid, in the chymase enzyme reaction as 100%, the inhibitory rate for each test substance is calculated, and the inhibitor concentration required to cause a 50% inhibition of the enzyme activity (IC50) is determined.
For further assessment of the inhibitory activity of the nucleic acid of the present invention, the enzyme activity of chymase was measured using angiotensin I, which is a native substrate for chymase, according to the following method. Angiotensin I is converted by chymase to angiotensin II, during which a peptide fragment His-Leu is released. Since the peptide His-Leu is fluorescently derivatized by o-phthalaldehyde, its fluorescence intensity can be quantitatively measured.
The total volume of solution for an enzyme reaction in the assay was set to 50 μL, and the reaction was performed in solution C buffer. First, 0.3-0.75 ng of chymase (recombinant, (manufactured by SIGMA) or native (manufactured by Calbiochem)) was diluted with solution C to give 5 μL thereof. Here, the recombinant is chymase expressed by yeast, and the native is chymase purified from human skin mast cell. The nucleic acid was serially diluted with solution C at a concentration of 0.0027-2 μM to give 25 μL thereof. The chymase solution (5 μL) and the nucleic acid solution (25 μL) were mixed, and the mixture was incubated at 37° C. for 5 min. On the other hand, […] angiotensin I (manufactured by PEPTIDE INSTITUTE, INC.) was prepared in solution C to give […] thereof, which was incubated at 37° C. for 5 min. The angiotensin I solution was added to a mixture of chymase and nucleic acid to start an enzyme reaction. The final chymase concentration of the reaction solution was 0.2-0.5 nM, and the final substrate concentration was 50 μM. […]

Take “53 (GGGUAACUAUGGUUAGAUAGAGUUAAAAACCAUAGAAGACCC; 2'-fluoro at CU, RNA at AG, backbone not given here) [compound 53]”: in data set [1], the “Binding activity as determined using Biacore” value (“Binding activity as determined” below) was “++”. This molecule returned an IC50 in data set [2] of 764 nM.
For the molecule “54 (UAACUAUGGUUAGAUAGAGUUAAAAACCAUAGAAGA; 2'-fluoro at CU, RNA at AG, backbone not given here) [compound 54]”, the “Binding activity as determined” value in data set [1] is “++”. Further, the IC50 in data set [2] was 614 nM.
For “55 (CUAUGGUUAGAUAGAGUUAAAAACCAUAG; 2'-fluoro at CU, RNA at AG, backbone not given here) [compound 55]”, in that order: “++” and 606 nM.
For the molecule “56 (GGGUUAGAUAGAGUUAAAAACCC; 2'-fluoro at CU, RNA at AG, backbone not given here) [compound 56]”, in data set [1], the “Binding activity as determined” value is “++”. Moreover, the “binding activity using Biacore” value in data set [1] (Table 6) was “++”. The same molecule displayed an IC50 in data set [2] of 508 nM.
Consider “58 (GGGUUGAAGAUAUUAAAGAACCC; 2'-fluoro at CU, RNA at AG, backbone not given here) [compound 58]”, for which, in data set [1] (Table 5), the “binding activity using Biacore” value was “+”.
In the case of “65 (rGrGfCrArGrAfUrArGrArGfUfUrArArArGfCfC) [compound 65]”, the “binding activity using Biacore” value in data set [1] (Table 5) was “++”. The molecule also displayed an IC50 in data set [2] of 878 nM.
In the case of “70 (GGGTTAGAUAGAGUUAAAAACCC; chemistry not given here) [compound 70]”, in data set [1] (Table 7), the “binding activity using Biacore” value is “++”. In data set [2], this molecule displayed an IC50 of 478 nM.
Consider “71 (GGGUUAGAUAGAGTUAAAAACCC; chemistry not given here) [compound 71]”, for which the “binding activity using Biacore” value in data set [1] (Table 7) is reported as “++”. Moreover, in data set [2], the midpoint of inhibition, the IC50, lay at 341 nM.
Regarding “72 (GGGTTAGAUAGAGTUAAAAACCC; chemistry not given here) [compound 72]”, the “binding activity using Biacore” value in data set [1] (Table 7) is “++”. Further, in data set [2], the IC50 turned out to be 120 nM.
Consider `CC(C)C[C@H](NC(=O)[C@@H](NC(=O)N[C@@H](Cc1ccccc1)C(=O)O)[C@@H]1CCN=C(N)N1)C(=O)N[C@H](C=O)Cc1ccccc1` [chymostatin, reference compound], for which the IC50 in data set [2] lay within 350 to 500 nM.
On to “GGGU(F)U(F)GAAGAU(F)AU(F)U(F)AAAGAAC(F)C(F)C(F) (GGGUUGAAGAUAUUAAAGAACCC; 2'-fluoro at CU, RNA at AG, backbone not given here) [SEQ ID NO: 58]”, for which the IC50 in data set [2] is > 1000 nM.

B1: 4 (nucleic acid)
chain: rGrGrGrAfCrGrGfUrArGrGrArAfUfUfCrGfUfCfCrAfUfUfCfUrAfCrArGrAfUrArGrArGrAfUrArArArGfUrArGrArAfUfUfUrArAfCrArArArAfCrAfUrArGrArArGrArGfCrGrGfCfCrGfC
modifications: aptamer
In data set [2], B1 had an IC50 of 31 nM.

B2: 14 (nucleic acid)
chain: rGrGrGrAfCrGrGfUrArGrGrArAfUfUfCfUfCrGfUfUfCfCfUrGrAfCrArGfCrAfUfUfUrGrArGrAfUrArGrAfUfUfUrArArAfCrArArAfCrGfCrAfCrAfUrArGrArArGrArGfCrGrGfCfCrGfC
modifications: aptamer
In data set [2], B2 had an IC50 of 63 nM.

B3: 13 (nucleic acid)
chain: rGrGrGrAfCrGrGfUrArGrGrArAfUfUfCfCrGfCrArAfCfCrAfUfCfCfCrGfUrArAfCfUrAfUrGrGfUfUrArGrAfUrArGrArGfUfUrArArArArAfCfCrAfUrArGrArArGrArGfCrGrGfCfCrGfC
modifications: aptamer
The molecule B3 came in with an IC50 in data set [2] of 74 nM.
